Experimental data taken from ChEMBL document CHEMBL1201862, “PubChem BioAssay data set” (2004).
Activity calls are given as the source filed them.

How the values were obtained:
HEK293 [1] = assay: cells; conditions: Homo sapiens
[2] = HIV-1 AD8 envelope cell-cell fusion blockers – cherry-pick, dose response (AID 652062); assay type: functional, cell-based;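 note: luciferase signal from cell-cell fusion driven by HIV-1 clade B AD8 Env; potency is for inhibitors of fusion seen as a drop in luminescence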
[3] = blockers of HIV-1 ZM109 envelope-driven cell-cell fusion – HeLa effector, CEM target cells, luciferase, cherry-pick, dose response (AID 652058); assay type: functional, cell-based;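 note: luciferase signal from HIV-1 Env mediated cell-cell fusion of effector and target cells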
[4] = Trypanosoma cruzi growth suppression in host cells – NIH3T3 host cells, beta-gal luminescence, confirmation (AID 2044); assay type: functional, cell-based;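 note: intracellular parasites grown in NIH/3T3 mouse fibroblasts as host cells; luminescent beta-galactosidase reporter signal from transgenic T. cruzi replicating inside host cells; inhibitors lower the luminescence signal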
[5] = NIH3T3 cell viability loss – ATP luminescence, mouse fibroblasts, counter-screen, dose response (AID 2010); assay type: functional, cell-based;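 note: cells exposed to compound for about 90 hours before reading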
[6] = viability loss in CEM21 cells – cell-based, CellTiter-Glo luminescence, cherry-picked, cytotoxicity control for viral fusion inhibitor project, dose response (AID 652042); assay type: functional;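 note: potency for signal decrease meaning cytotoxicity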
[7] = blockers of HIV-1 envelope-mediated cell-cell fusion – cherry-pick, dose response (AID 652057); assay type: functional, cell-based
HEK293 [8] = assay: cells; conditions: Homo sapiens; remark: listed apart in the source
[9] = off-target signal loss in HeLa-CEM21 co-culture – HeLa F-luc CTL cells, cherry-picked, counter-screen for HIV-1 Env fusion inhibitor project, dose response (AID 652040); assay type: functional, cell-based;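 note: potency for signal decrease marking cytotoxic or nonspecific inhibition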
Caspase-3 = target: T1, Caspase-3 (Homo sapiens, UniProt P42574); assay: SAR Analysis of small molecule inhibitors of Sentrin-specific proteases (SENPs) using a Caspase-3 Selectivity assay. [Related pubchem assays (depositor defined):AID2540, AID2599, AID434973, AID489001]; assay type: functional
T1 sequence (P42574 whole entry): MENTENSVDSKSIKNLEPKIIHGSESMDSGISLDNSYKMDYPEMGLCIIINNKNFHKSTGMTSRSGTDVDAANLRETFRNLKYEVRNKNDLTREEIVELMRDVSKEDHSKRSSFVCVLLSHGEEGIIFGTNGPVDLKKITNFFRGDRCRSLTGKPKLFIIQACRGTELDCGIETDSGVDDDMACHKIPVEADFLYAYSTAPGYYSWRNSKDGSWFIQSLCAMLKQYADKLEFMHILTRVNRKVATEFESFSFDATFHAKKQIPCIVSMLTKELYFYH

[10] = target: T2, Sentrin-specific protease 7 (Homo sapiens, UniProt Q9BQF6); assay: inhibition of human SENP7 cleavage activity – biochemical, luminescence, SAR follow-up (AID 504497); assay type: functional
T2 sequence (Q9BQF6 whole entry): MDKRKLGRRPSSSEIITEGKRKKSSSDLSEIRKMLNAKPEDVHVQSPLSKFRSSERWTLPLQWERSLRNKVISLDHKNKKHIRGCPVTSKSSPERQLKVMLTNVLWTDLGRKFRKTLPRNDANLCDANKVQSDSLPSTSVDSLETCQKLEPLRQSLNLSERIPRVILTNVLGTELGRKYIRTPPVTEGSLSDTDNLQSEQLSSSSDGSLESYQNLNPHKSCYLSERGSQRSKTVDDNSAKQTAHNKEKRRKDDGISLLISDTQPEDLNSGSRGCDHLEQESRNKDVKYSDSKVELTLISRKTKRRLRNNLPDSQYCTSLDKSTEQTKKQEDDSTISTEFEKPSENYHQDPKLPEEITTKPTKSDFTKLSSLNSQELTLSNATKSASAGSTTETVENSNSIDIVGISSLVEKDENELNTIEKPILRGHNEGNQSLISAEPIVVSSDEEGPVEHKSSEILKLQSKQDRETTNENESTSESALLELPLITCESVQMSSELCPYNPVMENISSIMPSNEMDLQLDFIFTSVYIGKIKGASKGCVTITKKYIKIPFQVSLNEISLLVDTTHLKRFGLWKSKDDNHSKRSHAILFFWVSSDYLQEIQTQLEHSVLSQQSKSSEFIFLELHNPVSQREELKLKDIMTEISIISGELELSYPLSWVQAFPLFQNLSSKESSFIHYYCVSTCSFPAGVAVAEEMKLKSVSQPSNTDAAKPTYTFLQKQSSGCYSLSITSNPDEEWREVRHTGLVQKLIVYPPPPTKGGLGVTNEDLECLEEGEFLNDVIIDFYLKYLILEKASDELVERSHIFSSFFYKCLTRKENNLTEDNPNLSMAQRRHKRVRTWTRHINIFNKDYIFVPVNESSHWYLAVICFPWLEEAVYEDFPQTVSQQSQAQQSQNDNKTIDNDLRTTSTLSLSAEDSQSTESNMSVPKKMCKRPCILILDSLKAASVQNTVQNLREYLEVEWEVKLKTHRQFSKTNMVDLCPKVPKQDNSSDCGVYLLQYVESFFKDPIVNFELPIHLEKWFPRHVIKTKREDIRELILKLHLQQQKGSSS

[11] = target: T3, Sentrin-specific protease 6 (Homo sapiens, UniProt Q9GZR1); assay: SAR Analysis of small molecule inhibitors of Sentrin-specific protease 6 (SENP6) using a Luminescent assay. [Related pubchem assays (depositor defined):AID2582, AID2599]; assay type: functional
T3 sequence (Q9GZR1 whole entry): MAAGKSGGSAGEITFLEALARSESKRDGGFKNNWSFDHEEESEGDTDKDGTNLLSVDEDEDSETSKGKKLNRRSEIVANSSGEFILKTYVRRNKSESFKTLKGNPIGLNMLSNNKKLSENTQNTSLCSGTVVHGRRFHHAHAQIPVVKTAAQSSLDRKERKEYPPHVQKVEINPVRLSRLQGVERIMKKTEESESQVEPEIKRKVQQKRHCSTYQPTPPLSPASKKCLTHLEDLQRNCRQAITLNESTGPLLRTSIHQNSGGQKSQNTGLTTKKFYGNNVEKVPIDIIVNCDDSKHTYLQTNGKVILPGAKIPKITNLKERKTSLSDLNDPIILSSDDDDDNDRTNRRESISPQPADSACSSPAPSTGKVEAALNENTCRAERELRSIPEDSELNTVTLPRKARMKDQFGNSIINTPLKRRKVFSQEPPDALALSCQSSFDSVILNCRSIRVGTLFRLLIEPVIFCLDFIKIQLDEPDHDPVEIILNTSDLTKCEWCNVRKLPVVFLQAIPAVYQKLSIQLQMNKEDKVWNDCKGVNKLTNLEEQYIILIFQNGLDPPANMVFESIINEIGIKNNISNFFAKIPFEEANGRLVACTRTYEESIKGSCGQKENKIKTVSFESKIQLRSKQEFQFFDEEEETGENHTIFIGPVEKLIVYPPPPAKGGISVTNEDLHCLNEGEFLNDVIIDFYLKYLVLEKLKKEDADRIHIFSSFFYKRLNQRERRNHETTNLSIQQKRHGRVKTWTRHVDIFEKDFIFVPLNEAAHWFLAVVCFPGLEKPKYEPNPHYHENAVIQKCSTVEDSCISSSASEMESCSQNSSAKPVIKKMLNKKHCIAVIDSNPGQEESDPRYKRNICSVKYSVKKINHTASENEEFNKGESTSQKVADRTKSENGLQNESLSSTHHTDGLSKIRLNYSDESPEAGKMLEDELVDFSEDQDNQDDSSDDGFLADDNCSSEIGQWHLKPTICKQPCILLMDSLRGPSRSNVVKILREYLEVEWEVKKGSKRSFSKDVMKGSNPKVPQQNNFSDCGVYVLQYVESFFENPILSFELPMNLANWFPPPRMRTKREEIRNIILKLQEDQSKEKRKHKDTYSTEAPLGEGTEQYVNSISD

[12] = target: T4, Sentrin-specific protease 8 (Homo sapiens, UniProt Q96LD8); assay: inhibition of human SENP8 cleavage activity – biochemical, luminescence, SAR follow-up (AID 504501); assay type: functional
T4 sequence (Q96LD8 whole entry): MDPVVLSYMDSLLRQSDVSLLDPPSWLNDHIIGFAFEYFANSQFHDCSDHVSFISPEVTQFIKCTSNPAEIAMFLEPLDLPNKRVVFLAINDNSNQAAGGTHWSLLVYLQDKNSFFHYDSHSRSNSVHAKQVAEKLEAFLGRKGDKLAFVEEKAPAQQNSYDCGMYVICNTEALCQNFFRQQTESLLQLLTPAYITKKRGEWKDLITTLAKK

[13] = target: Nuclear receptor subfamily 0 group B member 1 (Homo sapiens, UniProt P51843); assay: Luminescence-based cell-based high throughput dose response assay for inhibitors of the orphan nuclear receptor subfamily 0, group B, member 1 (DAX1; NR0B1). [Related pubchem assays (depositor defined):AID504766, AID504790]; assay type: functional
Nuclear receptor subfamily 0 group B member 1, sequence (P51843 whole entry): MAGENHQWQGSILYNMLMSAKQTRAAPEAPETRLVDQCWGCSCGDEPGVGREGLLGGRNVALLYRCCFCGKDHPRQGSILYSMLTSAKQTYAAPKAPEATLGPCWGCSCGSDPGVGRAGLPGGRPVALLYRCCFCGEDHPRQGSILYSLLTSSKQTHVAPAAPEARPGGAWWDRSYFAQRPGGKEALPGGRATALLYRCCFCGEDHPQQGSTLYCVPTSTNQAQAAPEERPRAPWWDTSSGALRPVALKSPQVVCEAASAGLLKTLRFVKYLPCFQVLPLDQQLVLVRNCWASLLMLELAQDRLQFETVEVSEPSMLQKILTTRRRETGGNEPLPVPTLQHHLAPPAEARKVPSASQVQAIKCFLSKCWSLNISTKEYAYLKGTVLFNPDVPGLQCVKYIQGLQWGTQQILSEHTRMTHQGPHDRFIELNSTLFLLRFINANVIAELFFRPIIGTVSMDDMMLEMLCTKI

HEK293 [14] = assay: cells; assay type: functional, cell-based; conditions: Homo sapiens
[15] = Luminescence Cell-Based Dose Retest to Confirm Inhibitors of Cancer Stem Cells. [Related pubchem assays (depositor defined):AID2717, AID2721]; assay type: functional; conditions: Homo sapiens
[16] = Counterscreen for AddAB inhibitors: absorbance-based bacterial cell-based high throughput dose response assay for inhibitors of bacterial viability. [Related pubchem assays (depositor defined):AID435030, AID449728, AID449731, AID488942, AID488955, AID488956]; assay type: functional
[17] = Fluorescence-based cell-based high throughput dose response assay for inhibitors of the interaction of nucleotide-binding oligomerization domain containing 2 (NOD2) and the receptor-interacting serine-threonine kinase 2 (RIPK2).; assay type: functional; conditions: Homo sapiens
CHO = CHO cell viability loss, potency – luminescence, cytotoxicity control for TLR9-MyD88 binding inhibitor project, dose response (AID 588339); assay type: functional, cell-based, hamster; conditions: Cricetulus griseus;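 note: CHO cells stably coexpressing TLR9 and MyD88 fusions from primary screen; compound exposure lasted 48 hours before viability readout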

## CCN(CC(O)CON=C1c2ccccc2-c2ccccc21)S(=O)(=O)c1ccc(C)cc1 (stereo not drawn)
HEK293 [1]
  EC50: > 59.6 µM (inactive)
[2]
  AC50: 2.44 µM (active)
[3]
  AC50: 2.97 µM (active)
[4]
  EC50: 1.68 µM (active)
[5]
  EC50: > 60 µM (not active)
[6]
  AC50: 41.7 µM (active)
[7]
  AC50: 2.96 µM (active)
HEK293 [8]
  EC50: > 59.6 µM (inactive)
[9]
  AC50: 4.5 µM (active)

## Cc1nn(-c2ccccc2)c2c1C(c1ccc(OC(F)F)cc1)C(C#N)=C(N)O2 (stereo not drawn)
Caspase-3
  IC50: > 99 µM (inactive)
[10]
  IC50: > 99 µM (inactive)
[11]
  IC50: > 99 µM (inactive)
[12]
  IC50: > 99 µM (inactive)

## O=C(NCCN1CCCCC1)Nc1ccc([N+](=O)[O-])cc1
[13]
  IC50: > 67.5 µM (inactive)
HEK293 [14]
  IC50: > 67.5 µM (inactive)

## C=CCn1c(O)nnc1Sc1ncc([N+](=O)[O-])s1
[15]
  AC50: 1.85 µM (active)
[16]
  IC50: 21.7 µM (inactive)
[17]
  IC50: 1.32 µM (active)
CHO
  IC50: 1.99 µM (active)

## CCOc1ccc2nc(N(CCCn3ccnc3)C(=O)c3ccc(Cl)s3)sc2c1
Caspase-3
  IC50: > 99 µM (inactive)
[10]
  IC50: > 99 µM (inactive)
[11]
  IC50: > 99 µM (inactive)
[12]
  IC50: > 99 µM (inactive)
